Test [1] addresses 5-hydroxytryptamine receptor 1B (Homo sapiens, UniProt P28222). Briefly: Binding affinity for human 5-hydroxytryptamine 1B receptor.
For test [2], the target named is 5-hydroxytryptamine receptor 1D (Homo sapiens, UniProt P28221). Briefly: Binding affinity for human 5-hydroxytryptamine 1D receptor.

The record followed here is ChEMBL document CHEMBL1133354, “5-Thienyltryptamine derivatives as serotonin 5-HT1B/1D receptor agonists: potential treatments for migraine” (Bioorg Med Chem Lett, 2000).

5-hydroxytryptamine receptor 1D, sequence (P28221 whole entry): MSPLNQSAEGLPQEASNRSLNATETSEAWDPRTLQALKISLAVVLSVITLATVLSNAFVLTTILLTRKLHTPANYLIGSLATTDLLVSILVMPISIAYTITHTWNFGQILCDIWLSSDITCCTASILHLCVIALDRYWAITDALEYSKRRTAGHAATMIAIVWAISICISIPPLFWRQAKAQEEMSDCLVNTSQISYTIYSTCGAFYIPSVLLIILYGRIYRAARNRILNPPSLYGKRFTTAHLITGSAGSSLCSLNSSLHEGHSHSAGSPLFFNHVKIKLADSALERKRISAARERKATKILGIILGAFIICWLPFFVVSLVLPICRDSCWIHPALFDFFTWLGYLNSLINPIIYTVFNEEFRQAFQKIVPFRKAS
5-hydroxytryptamine receptor 1B, sequence (P28222 whole entry): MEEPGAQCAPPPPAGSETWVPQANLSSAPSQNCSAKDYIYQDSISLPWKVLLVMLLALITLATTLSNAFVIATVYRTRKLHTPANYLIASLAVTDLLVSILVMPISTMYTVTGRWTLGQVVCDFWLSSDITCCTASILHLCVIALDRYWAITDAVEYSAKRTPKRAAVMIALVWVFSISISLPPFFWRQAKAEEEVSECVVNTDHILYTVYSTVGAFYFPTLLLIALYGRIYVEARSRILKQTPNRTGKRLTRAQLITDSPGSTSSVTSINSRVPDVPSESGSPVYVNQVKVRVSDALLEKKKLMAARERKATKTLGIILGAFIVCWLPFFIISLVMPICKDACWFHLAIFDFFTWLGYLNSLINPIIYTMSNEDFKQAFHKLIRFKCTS

On to `COC[C@@H]1CCCN1CCc1c[nH]c2ccc(-c3cccs3)cc12`, for which the Ki in test [1] worked out at 9.9 nM; in test [2] it was 1.8 nM.
On the same counts, the results for `NCCc1c[nH]c2ccc(-c3cccs3)cc12` are 32 nM and 1.7 nM.
The corresponding values for `Clc1ccc(-c2ccc3[nH]cc(CCN4CCCC4)c3c2)s1` are 476 nM and 31 nM.
On the same counts, the results for `Cc1ccc(-c2ccc3[nH]cc(CCN(C)C)c3c2)s1` are 133 nM and 3.2 nM.
Regarding `OC[C@@H]1CCCN1CCc1c[nH]c2ccc(-c3cccs3)cc12`, the inhibition constant (Ki) in test [1] is 113 nM; in test [2], 8.2 nM.
On the same counts, the results for `CN(C)CCc1c[nH]c2ccc(-c3cccs3)cc12` are 23 nM and 0.7 nM.
In the case of `C1=CCN(CCc2c[nH]c3ccc(-c4cccs4)cc23)C1`, the inhibition constant Ki in test [1] turned out to be 107 nM; in test [2], 4.5 nM.
The corresponding values for `CN(C)CCc1c[nH]c2ccc(-c3ccsc3)cc12` are 17 nM and 0.5 nM.
The corresponding values for `c1csc(-c2ccc3[nH]cc(CCN4CCCC4)c3c2)c1` are 714 nM and 19 nM.
Consider `CN(C)CCc1c[nH]c2ccc(-c3ccc(Cl)s3)cc12`, for which the Ki worked out at 303 nM in test [1] and 7.6 nM in test [2].
For `CC1CCC(C)N1CCc1c[nH]c2ccc(-c3cccs3)cc12` (configuration not stated), the inhibition constant (Ki) was determined as 70 nM in test [1] and 2.5 nM in test [2].

What is called Ki is the dissociation constant of the complex between target and ligand, obtained from inhibition or displacement. Higher therefore signals a looser hold on the target.
